Drawing on a melting point compilation (Tetko et al.; mined from patent text by program, amines drawn as free bases though some values may be those of a salt), this text covers melting point for 90 molecules.

Structures are written as SMILES. A value given as a limit tells only on which side of the number the result lay.

As a reminder, the melting point is the temperature of the solid-liquid transition. As to `N#Cc1ccc(-c2ccc(-c3ccc(C#N)o3)cc2)cc1`, the melting point fell in the range of 216 to 218 °C.
In the case of `CCOC(=O)/C=C/c1cn(Cc2ccc(OCc3nc(-c4ccccc4)oc3C)cc2)cc1-c1ccccc1`, the melting point was in the range of 120 to 121 °C.
The figure for `COc1ccc2c(c1)c(C(=O)CCC(=O)O)c(C)n2Cc1ccc(Br)cc1` is 215 to 217 °C; for `Cc1nc2c(N)nc3ccccc3c2n1CC(C)(C)C(N)=O` it is 284 to 287 °C.
Consider `OCc1cc(C=CCN2Cc3ccccc3C2)ccc1O`, for which the melting point fell in the range of 177 to 178 °C.
`CNC(=Nc1ccccc1N1CCCCC1)C(C)(C)C` came in with a melting point of 78 °C.
For `S=C1CN=C(c2ccccc2Cl)c2cc(Cl)ccc2N1`, the melting point lay within 251 to 253 °C.
The figure for `CCN(CC)CCn1c(O)nc2cc(Cl)c(Cl)nc21` is 137 to 139 °C.
The figure for `COc1ccc(Br)c(O)c1` is 40 to 42 °C; for `OCCCc1nc2cccnc2[nH]1` it is 151 to 153 °C; for `COc1cccc(C#Cc2ccncc2)c1` it is 33 to 35 °C.
`CC(C)(O)/C=C\C(C)(C)O` registered a melting point of 64 °C.
In the case of `O=C(O)c1ccnc(NC(=O)C(Cc2ccccc2)NP(=O)(O)O)c1` (stereo not given) it was 135 to 137 °C.
In the case of `COc1ccc(S(=O)(=O)Nc2onc(C)c2Br)cc1OC` it was 136 to 138 °C; in that of `O=C(Nc1ccc(N2CCN(C(=O)Nc3ccc(C(=O)O)cc3Cl)CC2)cc1)Nc1ccccc1F`, 250 to 253 °C; in that of `CC(C)c1ccc(/C=C/C(=O)/C=C/c2ccccc2)cc1`, 76 to 78 °C.
The figure for `COC(=O)c1cc(OC)c(OS(=O)(=O)C(F)(F)F)cc1[N+](=O)[O-]` is 69 to 70 °C; for `COCOCc1nc2nc(O)cnc2c(=O)[nH]1` it is 224 to 226 °C; for `CCc1noc(C(=O)Nc2ccccc2)c1C(=O)O` it is 150 to 152 °C.
In the case of `Nc1ncc([N+](=O)[O-])c(OCc2ccccc2)n1`, the melting point is 164 to 167 °C.
The figure for `Cc1ccc(Oc2cncc3sc(C(N)=O)cc23)cc1` is 196 to 197 °C; for `CCc1nc2cc(C(F)(F)F)c(Cl)cc2n1-c1ccc(CCOC(=O)NS(=O)(=O)c2cn(C)cn2)cc1` it is 204 °C.
On to `CCCCCCCCC(OC(C)=O)C1=CC(=O)OC1O` (stereo not given), for which the melting point fell in the range of 54 to 55 °C.
The molecule `CC(C)(C)NCC(O)COc1ccccc1-c1ccc(Cl)nn1` (stereo not given) returned a melting point of 93 to 94 °C.
As for `COc1cc2oc(=O)c(CCN3CCN(c4ccccc4)CC3)c(C)c2cc1OC`, the melting point lay in the range of 169 to 172 °C.
In the case of `CCOC(=O)C(C(=O)C(C)C)C1c2ccccc2C(=O)N1c1ccc2ccc(Cl)nc2n1` (stereo not given) it was 146 °C; in that of `Cc1cc2nc3ccc(C(N)=O)cn3c(=O)c2s1`, 375 to 377 °C.
`O=C(Oc1ccccc1)N1CCC(Sc2ccncc2)CC1` registered a melting point of 102 to 104 °C.
`CC(C)Sc1c(C(N)=O)n(C)c2ccc(OCc3ccccc3)cc12` came in with a melting point of 151 to 154 °C.
In turn, `Nc1nc2[nH]c(CCCCC#Cc3ccc(C(=O)N[C@@H](CCC(=O)O)C(=O)O)s3)cc2c(=O)[nH]1` returned a melting point of 197 to 198 °C.
Consider `O=[N+]([O-])C(F)(CO)CO`, for which the melting point was 86 to 87 °C.
The figure for `Cc1nn(C)c(S(N)(=O)=O)c1[N+](=O)[O-]` is 138 to 140 °C.
In the case of `CCNC(=O)Nc1ccc(-c2sc3c(c2CN(C)CCC(=O)N2CCCC2)c(=O)n(-c2ccccc2)c(=O)n3Cc2c(F)cccc2F)cc1` it was 240 to 244 °C.
In the case of `Cc1ccccc1C(=O)Nc1ccc(C(=O)N2CCCC(NC=O)c3ccccc32)cc1` (stereo not given) it was 211 to 213 °C.
Molecule `Brc1ccccc1C1=NOC2(N3CCCC3)CCCCC12` (stereo not given) came in with a melting point of 134 °C.
In turn, `COc1ccc2c(c1)c1c(n2C(=O)c2ccccc2)CCCC1C(=O)O` (stereo not given) showed a melting point of 157 to 159 °C.
The molecule `COc1ccc2c(c1)S(=O)(=O)c1c(cc(OC)c(OC(C)=O)c1Br)N2` gave a melting point of 258 to 260 °C.
The figure for `CCC(CC)n1cc(C)nc(N2CCc3cc(Cl)cc(Cl)c32)c1=O` is 137 to 139 °C; for `O=C(Nc1ccc(Cl)c(C(F)(F)F)c1)c1ccccc1SSc1ccccc1C(=O)Nc1ccc(Cl)c(C(F)(F)F)c1` it is 129 to 131 °C; for `Clc1ccc(CNc2nc(NC3CCCc4ccccc43)c3ccccc3n2)cc1` (stereo not given) it is 166 to 167 °C.
The figure for `Cc1cc(NC(=S)NC(=O)c2ccccc2Cl)ccc1-n1cccc1` is 134 to 136 °C; for `CNC(=O)c1cccc(F)c1Nc1nc(Nc2ccc3c(c2)CCN(CCOC)CC3)ncc1Br` it is 99 to 105 °C; for `COc1ccc(N2CCOCC2)c2sc(C(=O)NC3CCN(C(=O)OC(C)(C)C)CCC3=O)nc12` (stereo not given) it is 95 to 97 °C.
In the case of `CC(=O)Oc1ccccc1C(=O)CNc1c(C(=O)O)[nH]c2cc(Cl)ccc12` it was 184 to 186 °C; in that of `O=C(O)CCCCCCCCCCCCCCCOCc1ccccc1`, 56 to 59 °C.
Molecule `COc1ccc(C2SC(=O)NC2=O)cc1C(=O)NCc1ccc(C(F)(F)F)cc1` (stereo not given) showed a melting point of 168 to 169 °C.
The figure for `COCOc1ccc(C(=O)c2ccc(OCc3nc(-c4ccccc4)oc3C)cc2)c(O)c1` is 105 to 107 °C; for `Oc1cccc2c(Cl)ccnc12` it is 143 to 145 °C.
The figure for `OC1CCCc2cc(F)cc(F)c21` (stereo not given) is 102 to 103 °C; for `CCCNC(=O)c1nc(-c2ccccc2)c(-c2ccc(=O)n(CCC)n2)s1` it is 121 to 122 °C; for `CC(C)(C)C(S)(CC#N)C(C)(C)C` it is 154 to 155 °C.
In the case of `CCOC(=O)NC(=O)C(c1ccccc1)c1ccccc1` it was 133 °C; in that of `Cc1cc(O)ccc1N1CCc2c(C)nc3ccccc3c21`, 315 to 318 °C; in that of `CCOC(=O)C(C)Oc1ccc(OCc2ccccc2)c(F)c1` (stereo not given), 77 °C.
`COC(=O)C=Cc1ccc(Cl)c([N+](=O)[O-])c1`: the melting point was determined as 107 °C.
`CCOC(=O)c1cn(-c2cc(N)c(F)cc2F)c2c(OC)c(F)c(F)cc2c1=O` displayed a melting point of 159 to 162 °C.
The figure for `NCC1Cc2cc(C(F)(F)F)cc(-c3ccc(Cl)cc3)c2O1` (stereo not given) is more than 250 °C; for `OCCCc1c[nH]c2ccc(-n3cnnc3)cc12` it is 205 to 207 °C.
On to `CS(=O)(=O)c1ccc(-c2nc(-c3ccc(F)cc3)c(-c3ccncc3)[nH]2)cc1`, for which the melting point is 148 to 149 °C.
In the case of `CC(C)c1nnc(-c2ccc(-c3ccccc3)cc2)n1-c1ccccc1F` it was 201 to 204 °C.
In the case of `Cc1c(C(=O)O)sc2c(Br)csc12` it was 280 to 282 °C; in that of `COC(=O)c1nc2cc(C)cc(Cl)c2c(O)c1C(=O)OC`, 197 to 199 °C.
As to `O=C(O)COc1c(Br)cc(-c2c3ccccc3c(Br)c3oc4ccccc4c23)cc1Br`, the melting point was in the range of 250 to 252 °C.
The figure for `CN=C(O)c1c(Sc2ccc(OC)cc2)c(Sc2ccc(OC)cc2)c(Sc2ccc(OC)cc2)c(Sc2ccc(OC)cc2)c1C(=O)O` is 168 to 170 °C.
The figure for `Cc1ccc(NC(=O)c2cc(Cl)ccc2NCC2CCN(C3CCOCC3)CC2)nc1` is 166 to 168 °C; for `CN1CCN(C2CC3C4CCC5CC(O)C(N6CCC(O)CC6)CC5(C)C4CCC3(C)C2O)CC1` (stereo not given) it is 248 to 250 °C.
As to `Nc1nc(CCc2ccccc2)nc2nc(-c3ccco3)nn12`, the melting point was 235 to 237 °C.
Regarding `CCCN(c1ncnc2c1ncn2C1OC(CO)C(O)C1O)n1cccc1` (stereo not given), the melting point fell in the range of 136 to 138 °C.
In the case of `N#Cc1ccc(N2CCCC2)c2ccccc12` it was 109 to 110 °C; in that of `O=C(O)c1ccccc1Nc1ccncc1`, 275 to 280 °C; in that of `CC(C)(C(=O)c1ccc(F)cc1)N1CCOCC1`, 63 to 66 °C.
In the case of `CC(C)Oc1c(C(N)=O)n(C)c2ccc(O)cc12` it was 234 to 237 °C; in that of `Nc1cc(-c2ccccc2)c(S(N)(=O)=O)cc1S(N)(=O)=O`, 197 to 198 °C.
For the molecule `OCC1CC(O)C(n2cnc3cc(Cl)c(Cl)cc32)C1` (stereo not given), the melting point fell in the range of 244 to 245 °C.
The figure for `Cc1[nH]c(C(=O)NCCCN(C)C)c(C)c1-c1nc2ccc(C(=O)c3ccccc3)cc2[nH]1` is 238 to 248 °C; for `CC(=O)Nn1c(=S)[nH]c2cc(C(F)(F)F)ccc21` it is 294 to 295 °C; for `Cc1ccccc1CC(C(=O)O)C(=O)O` it is 132 to 135 °C.
`O=P(O)(O)Cc1ccccc1CP(=O)(O)O` had a melting point of more than 300 °C.
Molecule `CCOC(=O)c1cc(=O)c2ccc3nc(C(=O)OC)cc(Cl)c3c2o1` showed a melting point of 209 °C.
In the case of `O=C(O)CCSC1c2ccccc2COc2ccc(OCc3ccc4cc(F)ccc4n3)cc21` (stereo not given) it was 167 to 171 °C; in that of `O=C(Nc1ccc(OCCN2CCOCC2)c2ccccc12)NC1CC1c1ccccc1` (stereo not given), 156 to 157 °C; in that of `Cc1c(Cc2cccc(C(F)(F)F)c2)oc2cccc(-c3cccc(C(=O)O)c3)c12`, 169 to 170 °C.
The figure for `CCCCNC(=O)Nc1ncc(-c2ccncc2)cn1` is 204 to 206 °C.
The figure for `CCOC(=O)c1ccc2c(cnn2CCC#N)c1` is 106 to 109 °C.
As to `Clc1ccc(Oc2ccc(Cl)nn2)cc1`, the melting point came out at 119 °C.
In turn, `Cc1cc(-c2nc3cccnn3c2-c2ccnc(NC(=O)Nc3ccc(C#N)cc3)c2)ccc1F` gave a melting point of 204 to 206 °C.
In the case of `Cc1ccc(C(=O)NCCO)cc1-n1c(C)cc(OCc2ccccc2CNC(=O)Nc2cc(C(C)(C)C)nn2-c2ccc(Cl)c(O)c2)c(Cl)c1=O` it was 196 to 197 °C.
The figure for `COC(=O)c1ccc(N2C(=O)CCC2(CN=[N+]=[N-])COC(=O)c2ccccc2)c([N+](=O)[O-])c1` (stereo not given) is 214 to 215 °C; for `O=c1[nH]ncc2[nH]c(-c3ccc(OC(F)F)c(OC4CC4)c3)c(Cc3ccc(F)cc3)c12` it is 193 to 195 °C; for `Sc1nc2cnc3ccccc3c2s1` it is 282 to 284 °C.
